# Experimental data as given in PMC12892976, “Alkylation-based optimization of antifungal FPPS inhibitors yields a potent, broad-spectrum lipophilic zoledronate derivative” (mBio, 2025).
# Where two headings read alike, the source gives them in different places.
# Key:
# [1] = test system: eight fungal species; test: MIC/MFC summary across the eight fungal species of Table 1; format: cell-based
# Description: The antifungal activity of these compounds was evaluated according to CLSI guidelines ([16]).
# [2] = test system: Aspergillus fumigatus; test: MIC/MFC broth microdilution (CLSI); conditions: ATCC204305
# Description: (§1) Antifungal susceptibility was determined by broth microdilution according to the CLSI guidelines described in M27-Ed4 ([16]). […] MFC was determined by back-plating drug-treated cultures from MIC broths onto SDA plates. The MFC was defined as the lowest concentration from which no colonies could be cultured.
# [3] = test system: Trichophyton rubrum; test: MIC/MFC broth microdilution (CLSI); conditions: Trichophyton rubrum
# Description: as §1
# [4] = test system: Saccharomyces cerevisiae; test: MIC/MFC broth microdilution (CLSI); format: cell-based; conditions: Saccharomyces cerevisiae S288c
# Description: as §1
# [5] = test system: Candida albicans; test: MIC/MFC broth microdilution (CLSI); format: cell-based; conditions: Candida albicans SC5314
# Description: as §1
# [6] = test system: Cryptococcus neoformans; test: checkerboard drug interaction (FICI, MICc);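 on all read-outs here: antifungal plus FPPS inhibitor pairs tested against Cryptococcus neoformans by simplified diagonal checkerboard screening, FICI computed under the Loewe additivity model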; format: cell-based; conditions: C. neoformans; for INH FD (MIC-MICc fold decrease): fold decrease of inhibitor MIC
# Description: (§2) Drug interactions between antifungals and FPPS inhibitors were investigated using a simplified checkerboard diagonal screening method ([45]). […] FICIs were determined according to the Loewe additivity model ([17]).
# [7] = test system: Candida glabrata; test: checkerboard drug interaction (FICI, MICc);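 on all read-outs here: simplified diagonal checkerboard screen pairing antifungals with FPPS inhibitors, FICI calculated under the Loewe additivity model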; format: cell-based; conditions: C. glabrata; for INH FD (MIC-MICc fold decrease): fold decrease of inhibitor MIC
# Description: as §2
# [8] = test system: Candida glabrata; test: MIC/MFC broth microdilution (CLSI); conditions: Nakaseomyces glabratus, CBS138;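 further: broth microdilution following CLSI M27-Ed4, MFC taken as the lowest drug level yielding no growth once MIC wells were subcultured on SDA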
# Description: as §1
# [9] = test system: Aspergillus fumigatus; test: checkerboard drug interaction (FICI, MICc); format: cell-based;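 further: simplified diagonal checkerboard screen pairing antifungals with FPPS inhibitors against Aspergillus fumigatus, with FICI calculated under the Loewe additivity model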
# Description: as §2
# [10] = test system: Aspergillus flavus; test: checkerboard drug interaction (FICI, MICc);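 further: simplified diagonal checkerboard screen pairing azole antifungals with FPPS inhibitors, FICI calculated under the Loewe additivity model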; format: cell-based; set-up: INH MICc (KET:INH) / INH MICc (FLC:INH): unit not given beside the values; conditions: A. flavus
# [11] = test system: eight fungal species; test: checkerboard interaction with azoles, summary across the eight species; format: cell-based; conditions: geometric mean MIC in combination with azoles
# Description: Synergy between lipophilic FPPS inhibitors and azole antifungals was investigated by determining the fractional inhibitory concentration index (FICI) (Fig. 2; Table S1 Fig. S1) ([17]). […]. Derivatives PLA9 and 11, and PDA9, 11, and 12 antagonized azoles in C. albicans, C. neoformans, and C. deuterogattii, yet were largely synergistic in C. glabrata and S. cerevisiae. […].
# [12] = test system: Trichophyton rubrum; test: checkerboard drug interaction (FICI, MICc);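 further: simplified diagonal checkerboard screen pairing azole antifungals with FPPS inhibitors, FICI calculated under the Loewe additivity model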; format: cell-based; conditions: T. rubrum
# Description: as §2
# [13] = test system: Candida albicans; test: checkerboard drug interaction (FICI, MICc);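 on all read-outs here: antifungal plus FPPS inhibitor combinations on Candida albicans tested by a simplified diagonal checkerboard screen, with FICI calculated under the Loewe additivity model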; format: cell-based; conditions: C. albicans; for INH FD (MIC-MICc fold decrease): fold decrease of inhibitor MIC
# Description: as §2
# [14] = test system: Cryptococcus neoformans; test: MIC/MFC broth microdilution (CLSI); conditions: Cryptococcus neoformans;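 further: susceptibility testing followed the CLSI M27-Ed4 broth microdilution document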
# Description: as §1
# [15] = test system: HEK-293T cells; test: MTT reduction cytotoxicity assay; format: cell-based; conditions: Homo sapiens, HEK-293T, 72 h, HEK-293T, MTT, 72 h; read-out: HEK IC50
# [16] = test system: Saccharomyces cerevisiae; test: checkerboard drug interaction (FICI, MICc); format: cell-based; set-up: INH MICc / INH MICc (ITR:INH) / INH MICc (KET:INH) / INH MICc (FLC:INH): unit not given beside the values;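 further: simplified diagonal checkerboard screen pairing antifungals with FPPS inhibitors, FICI calculated under the Loewe additivity model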
# [17] = test system: Cryptococcus deuterogattii; test: checkerboard drug interaction (FICI, MICc);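 on all read-outs here: simplified diagonal checkerboard screen pairing antifungal drugs with FPPS inhibitors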; format: cell-based; conditions: C. deuterogattii; for INH FD (MIC-MICc fold decrease): fold decrease of inhibitor MIC
# Description: as §2
# [18] = test system: Cryptococcus deuterogattii; test: MIC/MFC broth microdilution (CLSI); conditions: Cryptococcus deuterogattii;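 further: broth microdilution per CLSI M27-Ed4. MFC is the lowest concentration yielding no colonies when MIC broths are subcultured onto SDA plates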
# Description: as §1
# [19] = test system: Aspergillus flavus; test: MIC/MFC broth microdilution (CLSI); conditions: ATCC204304
# Description: as §1
# [20] = FLC:INH combination, MIC of the inhibitor in combination with FLC
# [21] = FLC:INH combination, fold decrease of FLC MIC
# [22] = ITR:INH combination, MIC of the inhibitor in combination with ITR
# [23] = ITR:INH combination, fold decrease of ITR MIC
# [24] = KET:INH combination, MIC of the inhibitor in combination with KET
# [25] = KET:INH combination, fold decrease of KET MIC
# [26] = Fractional Inhibitory Concentration Index, fluconazole + inhibitor
# [27] = Fractional Inhibitory Concentration Index, itraconazole + inhibitor
# [28] = Fractional Inhibitory Concentration Index, ketoconazole + inhibitor
# [29] = MIC of the inhibitor in combination with fluconazole
# [30] = MIC of the inhibitor in combination with itraconazole
# [31] = MIC of the inhibitor in combination with ketoconazole
# [32] = MIC-MICc fold decrease of fluconazole, negative = increase
# [33] = MIC-MICc fold decrease of itraconazole, negative = increase
# [34] = MIC-MICc fold decrease of ketoconazole, negative = increase
# [35] = MIC-MICc fold decrease of the inhibitor, with fluconazole
# [36] = MIC-MICc fold decrease of the inhibitor, with itraconazole
# [37] = MIC-MICc fold decrease of the inhibitor, with ketoconazole
compound,measurement,setting,value
CCCCCCCCCCCN1CCC[C@H]1C(=O)N[C@H](CC(=O)O)C(=O)O [PDA11],MFC,"[1]; across eight species, read-out: Geometric mean MFC",> 128 µg/mL
same,MIC,"[1]; geometric mean across eight species, read-out: GM fungal MIC",> 128 µg/mL
same,MIC,[1]; read-out: Geometric mean MIC,> 128 µg/mL
same,MFC,[2],> 128 µg/mL
same,MIC,[2],> 128 µg/mL
same,MFC,[3],> 128 µg/mL
same,MIC,[3],> 128 µg/mL
same,MFC,[4],> 128 µg/mL
same,MIC,[4],> 128 µg/mL
same,MFC,[5],> 128 µg/mL
same,MIC,[5],> 128 µg/mL
same,FICI,[6]; FLC:INH combination,≥4
same,INH MICc,[6]; [20],256
same,FLC FD (MIC-MICc fold decrease),[6]; [21],< -4
same,INH FD (MIC-MICc fold decrease),[6]; FLC:INH combination,1
same,FICI,[6]; ITR:INH combination,≥4
same,INH MICc,[6]; [22],256
same,ITR FD (MIC-MICc fold decrease),[6]; [23],< -4
same,INH FD (MIC-MICc fold decrease),[6]; ITR:INH combination,1
same,FICI,[6]; KET:INH combination,≥4
same,INH MICc,[6]; [24],128
same,KET FD (MIC-MICc fold decrease),[6]; [25],-4
same,INH FD (MIC-MICc fold decrease),[6]; KET:INH combination,2
same,FICI,[7]; FLC:INH combination,0.63
same,INH MICc,[7]; [20],8
same,FLC FD (MIC-MICc fold decrease),[7]; [21],2
same,INH FD (MIC-MICc fold decrease),[7]; FLC:INH combination,32
same,FICI,[7]; ITR:INH combination,0.28
same,INH MICc,[7]; [22],2
same,ITR FD (MIC-MICc fold decrease),[7]; [23],4
same,INH FD (MIC-MICc fold decrease),[7]; ITR:INH combination,128
same,FICI,[7]; KET:INH combination,0.28
same,INH MICc,[7]; [24],2
same,KET FD (MIC-MICc fold decrease),[7]; [25],4
same,INH FD (MIC-MICc fold decrease),[7]; KET:INH combination,128
same,MFC,[8],> 128 µg/mL
same,MIC,[8],> 128 µg/mL
same,FICI (FLC:INH),[9]; [26],2
same,FICI (ITR:INH),[9]; [27],0.51
same,FICI (KET:INH),[9]; [28],1.5
same,INH MICc (FLC:INH),[9]; [29],256
same,INH MICc (ITR:INH),[9]; [30],2
same,INH MICc (KET:INH),[9]; [31],128
same,FLC FD (FLC:INH),[9]; [32],1
same,ITR FD (ITR:INH),[9]; [33],2
same,KET FD (KET:INH),[9]; [34],1
same,INH FD (FLC:INH),[9]; [35],1
same,INH FD (ITR:INH),[9]; [36],128
same,INH FD (KET:INH),[9]; [37],2
same,FICI (FLC:INH),[10]; [26],1
same,FICI (ITR:INH),[10]; [27],2
same,FICI (KET:INH),[10]; [28],0.75
same,INH MICc (FLC:INH),[10]; [29],128
same,INH MICc (ITR:INH),[10]; [30],256
same,INH MICc (KET:INH),[10]; [31],64
same,FLC FD (FLC:INH),[10]; [32],2
same,ITR FD (ITR:INH),[10]; [33],1
same,KET FD (KET:INH),[10]; [34],2
same,INH FD (FLC:INH),[10]; [35],2
same,INH FD (ITR:INH),[10]; [36],1
same,INH FD (KET:INH),[10]; [37],4
same,GM fungal MICc,[11],78.3
same,FICI (FLC:INH),[12]; [26],3
same,FICI (ITR:INH),[12]; [27],2
same,FICI (KET:INH),[12]; [28],3
same,INH MICc (FLC:INH),[12]; [29],256
same,INH MICc (ITR:INH),[12]; [30],256
same,INH MICc (KET:INH),[12]; [31],256
same,FLC FD (FLC:INH),[12]; [32],-2
same,ITR FD (ITR:INH),[12]; [33],1
same,KET FD (KET:INH),[12]; [34],-2
same,INH FD (FLC:INH),[12]; [35],1
same,INH FD (ITR:INH),[12]; [36],1
same,INH FD (KET:INH),[12]; [37],1
same,FICI,[13]; FLC:INH combination,≥4
same,INH MICc,[13]; [20],128
same,FLC FD (MIC-MICc fold decrease),[13]; [21],< -4
same,INH FD (MIC-MICc fold decrease),[13]; FLC:INH combination,2
same,FICI,[13]; ITR:INH combination,≥4
same,INH MICc,[13]; [22],128
same,ITR FD (MIC-MICc fold decrease),[13]; [23],< -4
same,INH FD (MIC-MICc fold decrease),[13]; ITR:INH combination,2
same,FICI,[13]; KET:INH combination,≥4
same,INH MICc,[13]; [24],64
same,KET FD (MIC-MICc fold decrease),[13]; [25],< -4
same,INH FD (MIC-MICc fold decrease),[13]; KET:INH combination,4
same,MFC,[14],> 128 µg/mL
same,MIC,[14],> 128 µg/mL
same,IC50,[15],> 256 µg/mL
same,FICI (FLC:INH),[16]; [26],0.5
same,FICI (ITR:INH),[16]; [27],1.5
same,FICI (KET:INH),[16]; [28],0.5
same,INH MICc (FLC:INH),[16]; [29],64
same,INH MICc (ITR:INH),[16]; [30],128
same,INH MICc (KET:INH),[16]; [31],64
same,FLC FD (FLC:INH),[16]; [32],4
same,ITR FD (ITR:INH),[16]; [33],1
same,KET FD (KET:INH),[16]; [34],4
same,INH FD (FLC:INH),[16]; [35],4
same,INH FD (ITR:INH),[16]; [36],2
same,INH FD (KET:INH),[16]; [37],4
same,FICI,[17]; FLC:INH combination,≥4
same,INH MICc,[17]; [20],256
same,FLC FD (MIC-MICc fold decrease),[17]; [21],-4
same,INH FD (MIC-MICc fold decrease),[17]; FLC:INH combination,1
same,FICI,[17]; ITR:INH combination,≥4
same,INH MICc,[17]; [22],256
same,ITR FD (MIC-MICc fold decrease),[17]; [23],< -4
same,INH FD (MIC-MICc fold decrease),[17]; ITR:INH combination,1
same,FICI,[17]; KET:INH combination,1
same,INH MICc,[17]; [24],128
same,KET FD (MIC-MICc fold decrease),[17]; [25],2
same,INH FD (MIC-MICc fold decrease),[17]; KET:INH combination,2
same,MFC,[18],> 128 µg/mL
same,MIC,[18],> 128 µg/mL
same,MFC,[19],> 128 µg/mL
same,MIC,[19],> 128 µg/mL
